Results published in US20080058421A1, “COMPOSITIONS FOR CLEANING AND DISINFECTING NASAL TRACT AND SINUS CAVITY” (priority 2006, published 2008).

What was measured:
Format in all cases: cell-based
[1] = tested on: Escherichia coli ATCC 11229; test: A.O.A.C. sanitizer and germicidal detergent test
Excerpt: (§1) The bacterial cultures were purchased from the American Type Culture Collection (ATCC), (Bethesda, Md.). Escherichia coli and Staphylococcus aureus are used to represent both gram-negative and gram-positive bacterial classes. This test is used by the US EPA for to determine compliance for a product to be used as a sanitizing agent. A product that reduces population density of both types of bacteria in 30 seconds by 99.999% satisfies the requirement as a sanitizing agent.

[2] = tested on: Staphylococcus aureus ATCC 6538; test: A.O.A.C. sanitizer and germicidal detergent test
Excerpt: as §1

[3] = tested on: A. h. 7965 (Aeromonas hydrophila); test: modified A.O.A.C. germicidal and detergent sanitizer test
Description: (§2) The efficacy of the sanitizers in Examples 1, 2 and 3 was further evaluated with […] as controls against Salmonella typhimurium, Listeria monocytogenes, Aeromonas hydrophila, and Pseudomonas aeruginosa essentially by the modified detergent and germicidal sanitizer test of the A.O.A.C. The sanitizers were tested against both natural isolates and the antibiotic resistant strains of Listeria monocytogenes and Salmonella typhimurium. Each of the antibiotic resistant strains was used separately as well as in a composite strain prepared by mixing equal numbers of five different antibiotic resistant strains of Listeria monocytogenes or those of Salmonella typhimurium, respectively.

[4] = tested on: L. m. 7644 (Listeria monocytogenes); test: as above
Description: as §2

[5] = tested on: P. a. 10145 (Pseudomonas aeruginosa); test: as above
Description: as §2

[6] = tested on: S. t. 7823 (Salmonella typhimurium); test: as above
Description: as §2

[7] = sanitizer criterion is 99.999% reduction in 30 seconds

## OCl [Hypochlorite]
[1]; Fifty ppm hypochlorite
  meets criterion of a sanitizer (99.999% reduction in 30 seconds): meets the criterion of a sanitizer
[1]; [7]
  % Kill E. coli: >99.999%
[2]; Fifty ppm hypochlorite
  meets criterion of a sanitizer (99.999% reduction in 30 seconds): meets the criterion of a sanitizer
[2]; [7]
  % Kill Staph. aureus: >99.999%
[3]; 30 seconds contact
  % Kill: >99.999%
[3]; 60 seconds contact
  % Kill: >99.999%
[4]; 30 seconds contact
  % Kill: >99.999%
[4]; 60 seconds contact
  % Kill: >99.999%
[5]; 30 seconds contact
  % Kill: >99.999%
[5]; 60 seconds contact
  % Kill: >99.999%
[6]; 30 seconds contact
  % Kill: <99.999%
[6]; 30 seconds contact, HOCL = 50 ppm, duplicate counts
  Number of surviving bacteria/ml after contact, cfu/ml: T@, T@
[6]; 60 seconds contact
  % Kill: >99.999%
